Assay results taken from patent US20040127475A1, “Apparatus and method for delivering compounds to a living organism” (Estrogen Vascular Technology, LLC, priority 1999, published 2004).

System: porcine coronary arteries
Assay: 17B-estradiol eluting stents in the pig model of instent restenosis, histomorphometric analysis at 30 days
Format: in vivo
Details: pre-clinical work, same stent, dose and loading process as Example 3
Description: In another example, low and high dose 17B-estradiol eluting stents were compared with control stents in a randomized fashion in 18 porcine coronary arteries. Each artery of six pigs were randomly stented with either a control, low-dose or high-dose 17-estradiol eluting stent. All animals were sacrificed at 30 days for histomorphometric analysis.
The experiment and animal care conformed to National Institutes of Health and American Heart Association guidelines for the care and use of animals and were approved by the Institutional Animal Care and Use Committee at the Washington Hospital Center. Six domestic juvenile swine weighing 35-45 kg were used. […] Heart rate, blood pressure and electrocardiography were monitored throughout the procedure. […]
Coronary angiography was performed after intracoronary nitroglycerin (200 μg) administration and recorded on cine film (Phillips Cardiodiagnost; Shelton, Conn.). […]
The histopathologist was blinded to the stent types in each artery. […] The vessel injury score was determined by the method described by Kornowski et al. The scoring of endothelialization is based on percent of intimal surface covered by endothelial cells. […]
Data (mean±standard deviation) were analyzed to determine differences between treatment groups using an ANOVA with a post-hoc Bonferroni analysis. […]

`C[C@]12CC[C@@H]3c4ccc(O)cc4CC[C@H]3[C@@H]1CC[C@@H]2O` [17β-estradiol, 17β-Estradiol] was tested, and the “reduction in in-stent neo-intimal formation” value was 40%.
